Assay results reported in patent US20070264330A1 (priority 2006, published 2007).
One block for each molecule: values may come before it.

Experiments:
[1] = Excipient compatibility study with crystalline Form A: Total Related Substance (TRS); format: physicochemical
Procedure: Binary mixtures of drug with each excipient were prepared by physically mixing 50.0 mg (±2.0 mg) of drug substance with the specified proportion of each excipient. The stability of the drug in the presence of each excipient was studied in dry samples as well as with 30% w/w (relative to bulk drug weight) de-ionized water. Each sample group was stored under the following conditions: 5° C. (for time=0 testing), 40° C./75% RH (relative humidity) one month, and 40° C./75% RH three months.

[2] = Excipient compatibility study with crystalline Form A: HPLC assay of % drug; format: physicochemical
Procedure: Physical mixtures of crystalline Form A and fourteen processing excipients, gelatin and hydroxypropyl methylcellulose capsules, and drug substance alone were prepared. […] Each sample group was stored under the following conditions: 5° C. (for time=0 testing), 40° C./75% RH (relative humidity) one month, and 40° C./75% RH three months. Bulk drug substance was weighed and added to a sample vial. De-ionized water was then measured (0.015 mL) and added to the vials designated as wet samples. The wet samples were then mixed using a vortex mixer for approximately 15 seconds to incorporate the water and the drug. Excipient was then weighed and added to appropriate vials. The contents of each vial were mixed for approximately 15 seconds using a vortex mixer to produce a uniform mixture of (wet or dry) drug/excipient. To prepare the capsule samples, the bulk drug substance was weighed directly into the capsule. The capsules were then placed into appropriate vials. Fifteen microliters of de-ionized water was added to the inside of capsules designated as wet samples. All samples were stored in 20 mL Type I clear glass scintillation vials with foil-lined screw-type vial caps were tightened by hand. Samples were stored in controlled room temperature/humidity until ready for testing. Other sample vials were stored at 40° C./75% RH unprotected from light and tested at one and three months. […] The vials were rinsed several times with diluent and added to the volumetric flasks. The contents of the capsules were transferred to 50 mL volumetric flasks and the capsule shells were also rinsed with diluent. Diluent was added to the volumetric flasks and they were sonicated for 10 minutes, then diluted to volume with diluent. The solutions were further diluted 5.0 mL into a 50 mL volumetric flask and brought to volume with diluent. These diluted solutions were used for the assay. All solutions were filtered through 0.45 micron PTFE filters, with the first 1-2 mL discarded before filling the HPLC autosampler vials. The diluted sample solutions were assayed against a reference standard of drug product prepared in a similar manner.

[3] = Solubility in water of the tartrate salt; format: physicochemical; conditions: tartrate salt versus compound of formula I
Description: The tartrate salt of pimavanserin may be prepared as an integrated part of the process for synthesizing the compound as described above by using tartaric acid as the salt forming acid. Alternatively, the tartrate salt may be formed by reaction of the isolated compound of formula I with tartaric acid.

[4] = In vivo human and non-human animal studies
[5] = wet conditions (30% w/w water added)

Total related substance, 1 month - Dry ([1]; dry, 1 month 40° C./75% RH): 1.38 | Total related substance, 3 month - Dry ([1]; dry, 3 month 40° C./75% RH): 2.72 | Total related substance, Time 0 - Dry ([1]; dry, time 0): 0.35 | Total related substance, 1 month - Wet ([1]; wet (30% w/w water), 1 month 40° C./75% RH): 1.67 | Total related substance, 3 month - Wet ([1]; wet (30% w/w water), 3 month 40° C./75% RH): 3.39 | Total related substance, Time 0 - Wet ([1]; wet (30% w/w water), time 0): 0.36 | % Drug One Month 40° C./75% RH ([2]; dry conditions): 94.9% | % Drug Three Months 40° C./75% RH ([2]; dry conditions): 95.9% | % Drug (time = 0) ([2]; dry conditions): 98.4% | % Drug One Month 40° C./75% RH [2, 5]: 91.2% | % Drug Three Months 40° C./75% RH [2, 5]: 93.5% | % Drug (time = 0) [2, 5]: 98.5%
Molecule: CC(C)COc1ccc(CNC(=O)N(Cc2ccc(F)cc2)C2CCN(C)CC2)cc1.CC(C)COc1ccc(CNC(=O)N(Cc2ccc(F)cc2)C2CCN(C)CC2)cc1.O=C(O)C(O)C(O)C(=O)O [#17 Drug Substance]

Molecule: tartrate salt of N-(4-fluorobenzyl)-N-(1-methylpiperidin-4-yl)-N′-(4-(2-methylpropyloxy)phenylmethyl)carbamide [pimavanserin tartrate]
solubility in water [3]: improved solubility in water

Molecule: CC(C)COc1ccc(CNC(=O)N(Cc2ccc(F)cc2)C2CCN(C)CC2)cc1 [pimavanserin, N-(1-methylpiperidin-4-yl)-N-(4-fluorophenylmethyl)-N′-(4-(2-methylpropyloxy)phenylmethyl)carbamide]
in vivo activity [4]: anti-psychotic, anti-dyskinesia, and anti-insomnia activity
